Literature values as cited in publication PMC10931745 (International Journal of Molecular Sciences, 2024).

How the values were obtained:
[1] = tested on: Enterococcus faecalis (ATCC 19433); parameters: method as in PMID 24586598; details: literature data ref 78; cited from earlier work
[2] = tested on: Klebsiella pneumoniae (ATCC 13883); parameters: method as in PMID 35203751; details: literature data ref 77; cited from earlier work
[3] = tested on: Staphylococcus epidermidis (ATCC 14990); parameters: method as in PMID 16556639; details: literature data ref 76; cited from earlier work
[4] = tested on: Escherichia coli (ATCC 25922); parameters: method as in PMID 36179970; details: literature data ref 74; cited from earlier work
[5] = tested on: Staphylococcus aureus (ATCC 23235); parameters: method as in doi:10.1186/s40543-021-00294-2; details: literature data ref 75; cited from earlier work

SMILES	M.B.C. E. faecalis [1]	M.I.C. E. faecalis [1]	M.B.C. K. pneumoniae [2]	M.I.C. K. pneumoniae [2]	M.B.C. S. epidermidis [3]	M.I.C. S. epidermidis [3]	M.B.C. E. coli [4]	M.I.C. E. coli [4]	M.B.C. S. aureus [5]	M.I.C. S. aureus [5]
CNC(C)C1CCC(N)C(OC2C(N)CC(N)C(OC3OCC(C)(O)C(NC)C3O)C2O)O1 (stereo not shown) [Gentamicin]	128 µg/mL	4 µg/mL	> 40 µg/mL	1.25 µg/mL	16 to 64 µg/mL	8 to 32 µg/mL	–	–	–	–
CC1(C)S[C@@H]2[C@H](NC(=O)[C@H](N)c3ccccc3)C(=O)N2[C@H]1C(=O)O [Ampicillin]	–	–	–	–	–	–	4 µg/mL	2 µg/mL	1/(1) [75] µg/mL	1/(1) [75] µg/mL
